According to patent publication US20230279025A1, “KRAS G12D INHIBITORS” (Mirati Therapeutics, Inc., priority 2020, published 2023):

Columns and labels:
KRas G12D [1] = biological target: T1, KRas G12D (Homo sapiens (Human), UniProt P01116, G12D); experiment: KRas G12D Surface Plasmon Resonance (SPR) Binding Assay; conditions: Biacore T200, immobilized biotinylated KRAS protein, 1:1 binding model
Procedure: Briefly, 1L of 1.05X HBS-Mg buffer (262.5 mM Bioultra Hepes, pH 7.5, 157.5 mM NaCl, 105 mM MgCl2, 0.525 mM TCEP, 0.0305% Brij-35) was prepared and filter sterilized using a 0.22 μm bottle top filter. Approximately 50 mL of 1.05X HBS-Mg buffer was removed and saved for future dilutions. A 50 mL aliquot of DMSO (Sigma Aldrich DMSO Lot. #SHBK2079) was added and continued to stir for 10 minutes, creating the final 1.0X HBS-Mg buffer (250 mM Bioultra Hepes pH 7.5, 150 mM NaCl, 100 mM MgCl2, 0.5 mM TCEP, 0.03% Brij-35).
Biacore T200 instrument was primed using 1.0X HBS-Mg buffer before docking a GE Streptavidin (SA) chip and then primed two additional times prior to beginning the immobilization step. All immobilized protein mixtures were created using 3-5 mg/mL Biotinylated Avidin-tagged KRAS protein using the following immobilization settings: SA chip type, 1 flow cells per cycle, 720 second contact time, and 5 ul/min flow rate. Normalization of the detector was also performed during the immobilization step using the GE BiaNormalize solution.
All compounds were diluted to 10 mM in 100% DMSO prior to being diluted 20X in 1.05X buffer. Another 10X dilution was created using 1.0X buffer prior to performing a series of 3X dilutions to create a compound concentration curve using the following assay settings: 20C analysis temperature, General Settings=10 Hz data collection rate and multi-detection; Assay Steps=all set to LMW kinetics; Cycle Types=LMW kinetics (60 s contact time, 120 s dissociation time, 100 ul/min flow rate, extra wash after injection with 50% DMSO, flow path 1,2,3,4); Flow path detection=2-1, 4-3). Data evaluation was performed using the Biacore T200 Evaluation software and data fit to 1:1 binding model. ND=not determined.
Target sequence in this assay (P01116-2 other isoform, or with tags, fused parts or gaps G12D): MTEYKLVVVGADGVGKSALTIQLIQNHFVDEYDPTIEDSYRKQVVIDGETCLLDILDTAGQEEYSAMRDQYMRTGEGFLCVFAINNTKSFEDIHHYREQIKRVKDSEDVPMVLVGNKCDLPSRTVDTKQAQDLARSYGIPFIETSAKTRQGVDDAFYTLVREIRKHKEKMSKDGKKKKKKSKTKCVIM

KRas G12D [2] = biological target: T1, KRas G12D; experiment: KRas G12D Binding Assay (TR-FRET displacement of Cy5 labelled tracer); conditions: GDP-loaded KRAS G12D (amino acids 1:169), 60 minute incubation at 22° C.
Procedure: After a 60 minute incubation at 22° C., the reaction was measured using a PerkinElmer EnVision multimode plate reader via TR-FRET dual wavelength detection, and the percent of control (POC) calculated using a ratiometric emission factor. […] The POC values were fit to a 4-parameter logistic curve and the IC50 value was determined as the concentration where the curve crosses 50 POC.
ND stands for “not determined.”
Target sequence in this assay (P01116 other isoform, or with tags, fused parts or gaps G12D): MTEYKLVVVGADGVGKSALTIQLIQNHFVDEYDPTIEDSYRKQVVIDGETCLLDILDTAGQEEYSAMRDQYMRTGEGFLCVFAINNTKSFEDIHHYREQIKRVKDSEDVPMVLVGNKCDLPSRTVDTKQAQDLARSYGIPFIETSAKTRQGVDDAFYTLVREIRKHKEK

| SMILES | Kd (KRas G12D [1]) [nM] | IC50 (KRas G12D [2]) [nM] |
| --- | --- | --- |
| Cn1cnc(COc2nc(N3C[C@H]4CC[C@@H](C3)N4)c3cnc(-c4cc(O)cc5ccccc45)c(F)c3n2)c1 [Example 9, 4-(4-((1R,5S)-3,8-diazabicyclo[3.2.1]octan-3-yl)-8-fluoro-2-((1-methyl-1H-imidazol-4-yl)methoxy)pyrido[4,3-d]pyrimidin-7-yl)naphthalen-2-ol] | 259 | 821 |
| CN1CCC[C@H]1COc1nc(N2C[C@H]3CC[C@@H](C2)N3)c2cnc(-c3cc(O)c(Br)c4ccccc34)c(F)c2n1 [Example 14, 4-(4-((1R,5S)-3,8-diazabicyclo[3.2.1]octan-3-yl)-8-fluoro-2-(((S)-1-methylpyrrolidin-2-yl)methoxy)pyrido[4,3-d]pyrimidin-7-yl)-1-bromonaphthalen-2-ol] | 5.1 | 73.9 |
| Cc1cccc2cccc(-c3ncc4c(N5C[C@H]6CC[C@@H](C5)N6)nc(OC[C@@H]5CCCN5C)nc4c3F)c12 [Example 15, 4-((1R,5S)-3,8-diazabicyclo[3.2.1]octan-3-yl)-8-fluoro-7-(8-methylnaphthalen-1-yl)-2-(((S)-1-methylpyrrolidin-2-yl)methoxy)pyrido[4,3-d]pyrimidine] | 208 | 260 |
| CN1C[C@H](F)C[C@H]1COc1nc(N2C[C@H]3CC[C@@H](C2)N3)c2cnc(-c3cc(O)cc4ccccc34)c(F)c2n1 [Example 16, 4-(4-((1R,5S)-3,8-diazabicyclo[3.2.1]octan-3-yl)-8-fluoro-2-(((2S,4R)-4-fluoro-1-methylpyrrolidin-2-yl)methoxy)pyrido[4,3-d]pyrimidin-7-yl)naphthalen-2-ol] | 31.3 | 54.1 |
| C[C@H](CN(C)C)Oc1nc(N2C[C@H]3CC[C@@H](C2)N3)c2cnc(-c3cc(O)cc4ccccc34)c(F)c2n1 [Example 17, 4-(4-((1R,5S)-3,8-diazabicyclo[3.2.1]octan-3-yl)-2-(((R)-1-(dimethylamino)propan-2-yl)oxy)-8-fluoropyrido[4,3-d]pyrimidin-7-yl)naphthalen-2-ol] | 2210 | 666 |
| CN(C)CCOc1nc(N2C[C@H]3CC[C@@H](C2)N3)c2cnc(-c3cc(O)cc4ccccc34)c(F)c2n1 [Example 18, 4-(4-((1R,5S)-3,8-diazabicyclo[3.2.1]octan-3-yl)-2-(2-(dimethylamino)ethoxy)-8-fluoropyrido[4,3-d]pyrimidin-7-yl)naphthalen-2-ol] | 3.1 | 76.8 |
| CN1CCC[C@H]1COc1nc(N2C[C@H]3CC[C@@H](C2)N3)c2cnc(-c3cccc4ccc(F)cc34)c(F)c2n1 [Example 19, 4-((1R,5S)-3,8-diazabicyclo[3.2.1]octan-3-yl)-8-fluoro-7-(7-fluoronaphthalen-1-yl)-2-(((S)-1-methylpyrrolidin-2-yl)methoxy)pyrido[4,3-d]pyrimidine] | 665 | 122 |
| CN1CCC[C@H]1COc1nc(N2C[C@H]3CC[C@@H](C2)N3)c2cnc(-c3cccc4ccccc34)c(F)c2n1 [Example 20, 4-((1R,5S)-3,8-diazabicyclo[3.2.1]octan-3-yl)-8-fluoro-2-(((S)-1-methylpyrrolidin-2-yl)methoxy)-7-(naphthalen-1-yl)pyrido[4,3-d]pyrimidine] | 967 | 692 |
| CN1CCC[C@H]1COc1nc(N2C[C@H]3CC[C@@H](C2)N3)c2cnc(-c3cccc4c3CCCC4)c(F)c2n1 [Example 21, 4-((1R,5S)-3,8-diazabicyclo[3.2.1]octan-3-yl)-8-fluoro-2-(((S)-1-methylpyrrolidin-2-yl)methoxy)-7-(5,6,7,8-tetrahydronaphthalen-1-yl)pyrido[4,3-d]pyrimidine] | 448 | 263 |
| Oc1cc(-c2ncc3c(N4C[C@H]5CC[C@@H](C4)N5)nc(OCCCN4CCOCC4)nc3c2F)c2ccccc2c1 [Example 22, 4-(4-((1R,5S)-3,8-diazabicyclo[3.2.1]octan-3-yl)-8-fluoro-2-(3-morpholinopropoxy)pyrido[4,3-d]pyrimidin-7-yl)naphthalen-2-ol] | 19.6 | 50.3 |
| Oc1cc(-c2ncc3c(N4C[C@H]5CC[C@@H](C4)N5)nc(OCCN4CCOCC4)nc3c2F)c2ccccc2c1 [Example 25, 4-(4-((1R,5S)-3,8-diazabicyclo[3.2.1]octan-3-yl)-8-fluoro-2-(2-morpholinoethoxy)pyrido[4,3-d]pyrimidin-7-yl)naphthalen-2-ol] | 270 | 338 |
| CC(C)N1CCC[C@H]1COc1nc(N2C[C@H]3CC[C@@H](C2)N3)c2cnc(-c3cccc4cccc(Cl)c34)c(F)c2n1 [Example 29, 4-((1R,5S)-3,8-diazabicyclo[3.2.1]octan-3-yl)-7-(8-chloronaphthalen-1-yl)-8-fluoro-2-(((S)-1-isopropylpyrrolidin-2-yl)methoxy)pyrido[4,3-d]pyrimidine] | 170 | 160 |
| Fc1c(-c2cncc3cccc(Cl)c23)ncc2c(N3C[C@H]4CC[C@@H](C3)N4)nc(OCC34CCCN3CCC4)nc12 [Example 33, 4-((1R,5S)-3,8-diazabicyclo[3.2.1]octan-3-yl)-7-(5-chloroisoquinolin-4-yl)-8-fluoro-2-((tetrahydro-1H-pyrrolizin-7a(5H)-yl)methoxy)pyrido[4,3-d]pyrimidine bis(2,2,2-trifluoroacetate)] | 71.7 | 21.1 |
| CO[C@@H]1C[C@@H](COc2nc(N3C[C@H]4CC[C@@H](C3)N4)c3cnc(-c4cccc5cccc(Cl)c45)c(F)c3n2)N(C)C1 [Example 34, 4-((1R,5S)-3,8-diazabicyclo[3.2.1]octan-3-yl)-7-(8-chloronaphthalen-1-yl)-8-fluoro-2-(((2S,4R)-4-methoxy-1-methylpyrrolidin-2-yl)methoxy)pyrido[4,3-d]pyrimidine] | 119 | 135 |
| OCC(CO)COc1nc(N2C[C@H]3CC[C@@H](C2)N3)c2cnc(-c3cccc4cccc(Cl)c34)c(F)c2n1 [Example 35, 2-(((4-((1R,5S)-3,8-diazabicyclo[3.2.1]octan-3-yl)-7-(8-chloronaphthalen-1-yl)-8-fluoropyrido[4,3-d]pyrimidin-2-yl)oxy)methyl)propane-1,3-diol] | 1380 | 475 |
| Oc1cc(-c2ncc3c(N4C[C@H]5CC[C@@H](C4)N5)nc(N4CC(O)C4)nc3c2F)c2ccccc2c1 [Example 37, 1-(4-((1R,5S)-3,8-diazabicyclo[3.2.1]octan-3-yl)-8-fluoro-7-(3-hydroxynaphthalen-1-yl)pyrido[4,3-d]pyrimidin-2-yl)azetidin-3-ol bis(2,2,2-trifluoroacetate)] | 494 | 405 |
| Oc1cc(-c2ncc3c(N4C[C@H]5CC[C@@H](C4)N5)nc(OCCCC(F)(F)F)nc3c2F)c2ccccc2c1 [Example 38, 4-(4-((1R,5S)-3,8-diazabicyclo[3.2.1]octan-3-yl)-8-fluoro-2-(4,4,4-trifluorobutoxy)pyrido[4,3-d]pyrimidin-7-yl)naphthalen-2-ol] | 750 | 174 |
| COCCN1CCC(Oc2nc(N3C[C@H]4CC[C@@H](C3)N4)c3cnc(-c4cccc5ccccc45)c(F)c3n2)CC1 [Example 39, 4-((1R,5S)-3,8-diazabicyclo[3.2.1]octan-3-yl)-8-fluoro-2-((1-(2-methoxyethyl)piperidin-4-yl)oxy)-7-(naphthalen-1-yl)pyrido[4,3-d]pyrimidine] | 67800 | > 10000 |
| Oc1cc(-c2ncc3c(N4C[C@H]5CC[C@@H](C4)N5)nc(OC[C@@H]4CC5CCN4C5)nc3c2F)c2ccccc2c1 [Example 40, 4-(2-(((2S)-1-azabicyclo[2.2.1]heptan-2-yl)methoxy)-4-((1R,5S)-3,8-diazabicyclo[3.2.1]octan-3-yl)-8-fluoropyrido[4,3-d]pyrimidin-7-yl)naphthalen-2-ol] | 1.7 | 4 |
| COCCCN1CCC(Oc2nc(N3C[C@H]4CC[C@@H](C3)N4)c3cnc(-c4cc(O)cc5ccccc45)c(F)c3n2)CC1 [Example 41, 4-(4-((1R,5S)-3,8-diazabicyclo[3.2.1]octan-3-yl)-8-fluoro-2-((1-(3-methoxypropyl)piperidin-4-yl)oxy)pyrido[4,3-d]pyrimidin-7-yl)naphthalen-2-ol] | 181 | 76.7 |
| CO[C@@H]1C[C@@H](COc2nc(N3C[C@H]4CC[C@@H](C3)N4)c3cnc(-c4cc(O)cc5ccccc45)c(F)c3n2)N(C)C1 [Example 42, 4-(4-((1R,5S)-3,8-diazabicyclo[3.2.1]octan-3-yl)-8-fluoro-2-(((2S,4R)-4-methoxy-1-methylpyrrolidin-2-yl)methoxy)pyrido[4,3-d]pyrimidin-7-yl)naphthalen-2-ol] | 5.6 | 3.1 |
